What all share (experiment): Bliss excess, mean over the matrix (fraction); higher = more synergy
Experiment [1] concerns KMRC-20 (Kidney Carcinoma). The method in brief:
(§1)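 Bliss excess equals the observed combination effect minus the expected value EA + EB − EA·EB, where EA and EB are the effects of each agent alone. Combination Emax is the second-highest inhibition within the matrix. Inhibition was scaled from CellTiter-Glo 2.0 luminescence, with 0 set by vehicle wells and 1 by blank wells, after 72 hours of two-drug dosing of cells plated in 1536-well plates.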

Experiment [2] deals with HuCCT1 (Biliary Tract Carcinoma). In a few lines: as §1
Experiment [3] has as its system SW1573 (Lung Adenocarcinoma). In a few lines: as §1
The subject of experiment [4] is NUGC-4 (Gastric Carcinoma). In a few lines:
as §1

The test system of experiment [5] is NCI-H2052 (Mesothelioma). In a few lines:
as §1

Experiment [6] deals with A673 (Ewing's Sarcoma). The method in brief: as §1
Experiment [7] concerns WSU-NHL (B-Cell Non-Hodgkin's Lymphoma). In a few lines: as §1
Experiment [8] relates to BFTC-909 (Kidney Carcinoma). In a few lines: as §1
The test system of experiment [9] is MPP-89 (Mesothelioma). The method in brief:
as §1

The test system of experiment [10] is LCLC-97TM1 (Non-Small Cell Lung Carcinoma). The method in brief: as §1
The test system of experiment [11] is SAS (Oral Cavity Carcinoma). The method in brief: as §1
In experiment [12] the test system is KYAE-1 (Esophageal Adenocarcinoma). The method in brief:
as §1

Experiment [13] has as its system OV-56 (Ovarian Carcinoma). In a few lines:
as §1

Experiment [14] deals with ALL-PO (B-Lymphoblastic Leukemia). The method in brief:
as §1

The subject of experiment [15] is LOXIMVI (Melanoma). The method in brief:
as §1

The test system of experiment [16] is ESS-1 (Other Solid Carcinomas). In a few lines:
as §1

Experiment [17] deals with HH (T-Cell Non-Hodgkin's Lymphoma). The method in brief:
as §1

The subject of experiment [18] is SW1710 (Bladder Carcinoma). In a few lines:
as §1

For experiment [19], the system named is BPH-1 (Non-Cancerous). The method in brief: as §1
The subject of experiment [20] is OVCAR-5 (Ovarian Carcinoma). The method in brief:
as §1

Among the data in the supplement of paper PMC11061612 are Bliss excess values, retold here.

Take `Cc1c2c(nn1C)CSCc1cc(n(C)n1)CSc1cc(c3ccccc3c1)OCCCc1c(C(=O)O)n(C)c3c-2c(Cl)ccc13` [AZD5991] + C1CN(CCC1(C(=O)N[C@@H](CCO)C2=CC=C(C=C2)Cl)N)C3=NC=NC4=C3C=CN4 [Capivasertib] (first compound max 1 µM, 7x7, partner max 3 µM): the Bliss excess was -0.0163 in experiment [1]; -0.0405 in experiment [2]; -0.0587 in [3]; -0.0228 in experiment [4]; -0.0083 in experiment [5]; 0.0001 in experiment [6]. Moreover, the Bliss excess in experiment [7] is -0.0777; in experiment [8], 0.0265; in [9] it was 0.0003; in experiment [10], -0.0061; in [11] it was -0.0165; in experiment [12] it was -0.0194. Besides, the Bliss excess was -0.0006 in experiment [13]; 0.0327 in experiment [14]; -0.0067 in experiment [15]; -0.0113 in [16]; 0.0176 in experiment [17]; -0.0407 in [18]. Further, the Bliss excess in [19] was 0.0123; in experiment [20], -0.0337.

As to `C=CCn1c(=O)c2cnc(Nc3ccc(N4CCN(C)CC4)cc3)nc2n1-c1cccc(C(C)(C)O)n1` [AZD1775] + C[C@@H]1COCCN1C2=NC(=NC(=C2)C3(CC3)[S@](=N)(=O)C)C4=C5C=CNC5=NC=C4 [AZD6738] (first compound max 1 µM, partner max 10 µM), the Bliss excess in experiment [1] was 0.0174; in [2], -0.0205; in [3], 0.0334; in experiment [4], -0.0701; in [5], -0.0197; in [6], 0.0115. The Bliss excess in experiment [7] is 0.0013; in experiment [8], 0.0858; in [9], 0.0013; in experiment [10] it was -0.0323; in experiment [11], 0.0138; in experiment [12] it was 0.026. Moreover, the Bliss excess was 0.0141 in experiment [13]; 0.0624 in experiment [14]; -0.0609 in [15]; -0.015 in [16]; 0.0379 in experiment [17]; 0.0811 in experiment [18]. Also, the Bliss excess in [19] was determined as 0.0614; in experiment [20], 0.0146.

In the case of `CC1(C)CCC(CN2CCN(c3ccc(C(=O)NS(=O)(=O)c4ccc(NCC5CCOCC5)c([N+](=O)[O-])c4)c(Oc4cnc5[nH]ccc5c4)c3)CC2)=C(c2ccc(Cl)cc2)C1` [Venetoclax] + COc1cc(Nc2ncc3c(n2)-c2ccc(Cl)cc2C(c2c(F)cccc2OC)=NC3)ccc1C(=O)O [Alisertib] (first compound max 1 µM, 7x7, partner max 10 µM), the Bliss excess is 0.0226 in [1]; -0.0148 in experiment [2]; -0.0548 in experiment [3]; -0.0557 in [4]; -0.0169 in [5]; 0.198 in experiment [6]. Moreover, the Bliss excess in experiment [7] was -0.0521; in experiment [8], 0.0116; in experiment [9], -0.0556; in experiment [10], 0.0449; in experiment [11], -0.0842; in experiment [12], -0.119. Besides, the Bliss excess was 0.001 in experiment [13]; 0.0529 in [14]; -0.0332 in experiment [15]; 0.0748 in [16]; -0.0223 in experiment [17]; -0.0425 in experiment [18]. Moreover, the Bliss excess in experiment [19] was -0.0459; in [20], -0.0703.

For the compound `C[C@@H]1COCCN1c1cc(C2([S@](C)(=N)=O)CC2)nc(-c2ccnc3[nH]ccc23)n1` [AZD6738] + O=C(c1cc(Cc2n[nH]c(=O)c3ccccc23)ccc1F)N1CCN(C(=O)C2CC2)CC1 [Olaparib] (first compound max 10 µM, 7x7, partner max 10 µM), the Bliss excess was -0.0101 in experiment [1]; -0.0264 in experiment [2]; -0.0044 in experiment [3]; -0.0163 in experiment [4]; 0.026 in [5]; 0.0381 in [6]. Besides, the Bliss excess in [7] is -0.0379; in [8], 0.0337; in [9] it was 0.0055; in [10] it was -0.0539; in [11], -0.0361; in experiment [12], -0.0082. Moreover, the Bliss excess is -0.0159 in [13]; 0.018 in experiment [14]; -0.0956 in experiment [15]; 0.0107 in experiment [16]; -0.0082 in experiment [17]; -0.0498 in experiment [18]. For the same compound, the Bliss excess is 0.0283 in [19] and -0.0994 in experiment [20].

On to `CN(CCO)CC[C@H](CSc1ccccc1)Nc1ccc(S(=O)(=O)NC(=O)c2ccc(N3CCC([C@@H](O)c4ccccc4-c4ccc(Cl)cc4)CC3)cc2)cc1S(=O)(=O)C(F)(F)F` [AZD4320] + CN(C)CCCOc1ccc(-c2ccc3ncc4c(c3c2)n(C2CCOCC2)c(=O)n4C)cn1 [AZD0156] (first compound max 1 µM, 7x7, partner max 1 µM), for which the Bliss excess in experiment [1] is -0.0377; in experiment [2] it was -0.0539; in experiment [3], -0.0585; in experiment [4], -0.0513; in experiment [5], -0.0383; in experiment [6] it was 0.0419. Also, the Bliss excess in experiment [7] was -0.0238; in experiment [8] it was 0.009; in [9], -0.0339; in experiment [10] it was -0.0244; in [11], -0.0472; in experiment [12], -0.0114. Besides, the Bliss excess in experiment [13] is -0.015; in experiment [14], 0.0031; in experiment [15], 0.0015; in experiment [16], 0.039; in experiment [17] it was -0.0203; in experiment [18] it was -0.0302. The results for the Bliss excess in experiment [19] and in [20] were -0.0216 and -0.0527, respectively.

Regarding `CCN(CCO)CCCOc1ccc2c(Nc3cc(CC(=O)Nc4cccc(F)c4)[nH]n3)ncnc2c1` [AZD2811] + C[C@@H]1COCCN1C2=NC(=NC(=C2)C3(CC3)[S@](=N)(=O)C)C4=C5C=CNC5=NC=C4 [AZD6738] (first compound max 1 µM, 7x7, partner max 10 µM), the Bliss excess in experiment [1] is -0.0667; in experiment [2], -0.0767; in experiment [3], -0.0394; in experiment [4], -0.0565; in [5], -0.0207; in experiment [6] it was -0.0587. The Bliss excess is -0.0665 in experiment [7]; -0.0231 in experiment [8]; -0.0823 in experiment [9]; 0.0116 in [10]; -0.0354 in [11]; -0.0234 in experiment [12]. Besides, the Bliss excess is -0.11 in [13]; -0.0288 in experiment [14]; -0.0763 in experiment [15]; -0.018 in experiment [16]; -0.033 in experiment [17]; -0.0975 in [18]. In addition, the Bliss excess in experiment [19] is -0.0111; in experiment [20], -0.0429.

Turning to `CC1(C)CCC(CN2CCN(c3ccc(C(=O)NS(=O)(=O)c4ccc(NCC5CCOCC5)c([N+](=O)[O-])c4)c(Oc4cnc5[nH]ccc5c4)c3)CC2)=C(c2ccc(Cl)cc2)C1` [Venetoclax] + CCN(CCO)CCCOc1ccc2c(Nc3cc(CC(=O)Nc4cccc(F)c4)[nH]n3)ncnc2c1 [AZD2811] (first compound max 1 µM, 7x7, partner max 1 µM), the Bliss excess in experiment [1] was -0.0273; in experiment [2] it was -0.0062; in experiment [3], -0.0575; in experiment [4], -0.0481; in experiment [5], -0.0112; in experiment [6], 0.0295. In addition, the Bliss excess in [7] was -0.0879; in experiment [8], -0.0289; in experiment [9], -0.0093; in experiment [10] it was -0.0053; in experiment [11], 0.009; in experiment [12], -0.0002. Also, the Bliss excess in experiment [13] is 0.0214; in experiment [14] it was 0.0129; in [15] it was 0.0139; in experiment [16], 0.0506; in experiment [17], -0.0152; in experiment [18] it was 0.0032. Moreover, the Bliss excess was -0.0198 in experiment [19] and -0.0482 in [20].
